Experiments:
[1] = target: T1, cloned dopamine D3 receptors (Homo sapiens, UniProt P35462); assay: Radioligand Kd at cloned dopamine D3 receptors; type: binding
T1 construct: expressed in transfected cells

[2] = tested on: depressive symptoms in acute exacerbations of schizophrenia; settings: amisulpride 400-800 mg/day, haloperidol 15-20 mg/day, risperidone 8 mg/day; Peuskens et al. 2002; cited from earlier work
[3] = tested on: duration of immobility in the forced swimming test; settings: mice, Nakazawa et al. 2003, cited from earlier work
[4] = tested on: dopamine behavioral supersensitivity; assay: Dopamine behavioral supersensitivity in animals; type: in vivo; settings: P. Seeman, Unpublished Results
[5] = tested on: depression (Major Depressive Disorder); assay: Clinical observation of treatment-resistant depression patients, Hamilton Scale for Depression; type: in vivo, human
Excerpt: All subjects were patients of a clinic for treatment-resistant depression at a tertiary hospital. Treatment-resistance was defined as a treatment failure on at least two other antidepressants prior to their referral to the clinic. Patients were deemed to be depressed by the referring psychiatrist as well as the treating psychiatrist according to DSM IV Criteria for Major Depressive Disorder.
The higher the value, the more severe the depression.

T1 sequence (P35462 whole entry): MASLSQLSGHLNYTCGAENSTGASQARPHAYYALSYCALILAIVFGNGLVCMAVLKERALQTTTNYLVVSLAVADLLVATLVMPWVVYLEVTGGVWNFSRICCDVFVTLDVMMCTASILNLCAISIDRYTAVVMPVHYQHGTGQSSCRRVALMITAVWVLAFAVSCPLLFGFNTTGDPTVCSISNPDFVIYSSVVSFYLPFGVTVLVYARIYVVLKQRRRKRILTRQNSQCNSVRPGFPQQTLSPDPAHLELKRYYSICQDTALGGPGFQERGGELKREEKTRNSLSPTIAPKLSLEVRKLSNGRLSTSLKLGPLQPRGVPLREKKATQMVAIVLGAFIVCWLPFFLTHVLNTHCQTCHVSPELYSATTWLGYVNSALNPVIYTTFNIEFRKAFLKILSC

## CCN1CCC[C@H]1CNC(=O)c1c(O)c(Cl)cc(Cl)c1OC (racemic) [[^3H]raclopride]
[1]
  Kd: 1.6 nM

## CCN1CCCC1CNC(=O)c1cc(S(=O)(=O)CC)c(N)cc1OC (stereo not shown) [amisulpride]
[2]
  Brief Psychiatric Rating Scale (BPRS) anxiety/depression subscore: 5.6±6.1

## O=c1cc(-c2ccc(O)cc2)oc2cc(O)cc(O)c12 [apigenin]
[3]
  duration of immobility in the forced swimming test: significantly decreased

## CNCCC(Oc1ccc(C(F)(F)F)cc1)c1ccccc1 (stereo not shown) [fluoxetine]
[4]
  dopamine behavioral supersensitivity in animals: cause dopamine behavioral supersensitivity

## O=C(CCCN1CCC(O)(c2ccc(Cl)cc2)CC1)c1ccc(F)cc1 [haloperidol]
[5]; Subject A, 5th week after starting medication, rating before 7-day regimen 14
  Rating after end of haloperidol (Hamilton depression scale): 9 (5th week)
[5]; Subject B, 5th week after starting medication, rating before 7-day regimen 18
  Rating after end of haloperidol (Hamilton depression scale): 15 (5th week)
[5]; Subject C, 5th week after starting medication, rating before 7-day regimen 30
  Rating after end of haloperidol (Hamilton depression scale): 12 (5th week)
[5]; Subject D, 5th week after starting medication, rating before 7-day regimen 40
  Rating after end of haloperidol (Hamilton depression scale): 32 (5th week)
[5]; Subject E, 4th week after starting medication, rating before 7-day regimen 23
  Rating after end of haloperidol (Hamilton depression scale): 7 (4th week)
[5]; Subject F, 5th week after starting medication, rating before 7-day regimen 20
  Rating after end of haloperidol (Hamilton depression scale): 4 (5th week)
[5]; Subject G, 5th week after starting medication, rating before 7-day regimen 24
  Rating after end of haloperidol (Hamilton depression scale): 13 (5th week)
[5]; all patients, oral 0.2-0.3 mg/day graded for 7 days
  severity of the depression after the 7-day treatment regimen: decreased
[2]
  Brief Psychiatric Rating Scale (BPRS) anxiety/depression subscore: 4.4±5.5
[3]; haloperidol 0.2 mg/kg
  effect on apigenin-induced decrease in immobility in the forced swimming test: blocked

## CN(C)CCCN1c2ccccc2CCc2ccccc21 [imipramine]
[4]
  dopamine behavioral supersensitivity in animals: cause dopamine behavioral supersensitivity

## Cc1nc2n(c(=O)c1CCN1CCC(c3noc4cc(F)ccc34)CC1)CCCC2 [risperidone]
[2]
  Brief Psychiatric Rating Scale (BPRS) anxiety/depression subscore: 3.7±4.7
